Test results from the METLIN SMRT retention time set (Domingo-Almenara et al. 2019).

test: gradient 5% acetonitrile 3 min, to 50% in 2 min, to 85% in 15 min, held 3 min, 100 µL/min; conditions: column: Zorbax Extend-C18 2.1 x 50 mm; eluents: water / acetonitrile, 0.1% formic acid
In short: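 The system's dead and dwell volumes were 40 μL and 900 μL, with a Zorbax Extend-C18 column (2.1 × 50 mm, 1.8 μm) run at 100 μL/min in water and acetonitrile containing 0.1% formic acid each. Pure standards were analyzed in mixtures of ~100 molecules by HPLC–quadrupole time-of-flight mass spectrometry in positive and negative ionization mode. Retention time was assigned from computationally picked, manually inspected adduct peaks.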

Row | Structure (SMILES) | RP-LC retention time
1 | CCCCOC(=O)c1ccc(NC(=O)c2c(OCC)cc(=O)n3c2CCCC3)cc1 | 910 s
2 | Cc1nn(CC(=O)N2CCC(C)CC2)c(=O)c2nc(-c3ccccc3)sc12 | 872 s
3 | Cc1cccc(NS(=O)(=O)c2cn(C(C)C)c3ncccc23)c1 | 892 s
4 | CC(=O)Nc1ccc(OC[C@](C)(O)C(=O)Nc2ccc([N+](=O)[O-])c(C(F)(F)F)c2)cc1 | 858 s
5 | Cc1ccc(CNS(=O)(=O)c2cc3n(c2)CCCNC3=O)cc1 | 658 s
6 | Cn1ncc2c3ccccc3n(CCCC(=O)NCc3ccccc3F)c2c1=O | 812 s
7 | Cc1nc2c(sc3nc(-c4ccccc4)ccc32)c(=O)n1CC(=O)Nc1cccc(Cl)c1 | 1120 s
8 | COc1ccc(Cl)cc1NC(=O)CSc1cc(N2CCN(c3ccccc3OC)CC2)ncn1 | 1240 s
9 | COc1ccc(OC)c(S(=O)(=O)N2CCCC(C(=O)Nc3ccc(C(N)=O)cc3)C2)c1 (stereo not drawn) | 689 s
10 | O=C(c1ccco1)N1CCCC1c1nc(-c2cccc(C(F)(F)F)c2)no1 (stereo not drawn) | 1020 s
11 | O=C(Cc1c(Sc2cccc(F)c2)[nH]c2ccccc12)N1CCN(c2ccccn2)CC1 | 699 s
12 | Cc1ccccc1NC(=O)Cn1cnc2onc(C)c2c1=O | 718 s
13 | O=C(O)c1ccc(Cn2cnc3ccccc32)o1 | 512 s
14 | CSc1ccc(CNC(=O)Cn2c(=O)cc(-c3nc(C4CC4)no3)c3ccccc32)cc1 | 962 s
15 | Cc1ccc(NC(=O)N2CCCC(Cn3c(C4CC4)nc4cccnc43)C2)cc1F (stereo not drawn) | 717 s
16 | O=C(NCCNC(=O)c1cccc(Cl)c1)c1ccc(NC(=O)C2CC2)cc1 | 667 s
17 | O=C(C1=CCN(Cc2ccc(F)cc2)CC1)N1CCN(c2ccccc2Cl)CC1 | 723 s
18 | COc1ccc(-c2csc3c(=O)n(CC(=O)NCc4ccco4)cnc23)cc1 | 764 s
19 | CNC(=O)[C@@H]1CN(C(=O)Cc2c(C)noc2C)C[C@H]1c1nc(C)no1 | 599 s
20 | Cc1cc(OC(C)C(=O)Nc2ccnn2Cc2ccco2)ccc1Cl (stereo not drawn) | 921 s
21 | O=C(Nc1ccc2c(c1)OCCO2)C1CCN(C(=O)c2cccc(F)c2)CC1 | 697 s
22 | Cc1ccc(C)c(NC(=O)NCC2CCOCC2)c1 | 705 s

Row | Structure (SMILES) | RP-LC retention time
23 | CC(C)c1nnc(NC(=O)C2CC(=O)N(CCc3c[nH]c4ccc(F)cc34)C2)s1 (stereo not drawn) | 746 s
24 | CCCNC(=O)CN1C(=O)CC(c2ccc(Br)s2)=Nc2ccccc21 | 913 s
25 | CCCCc1ccc(NC(=O)Cn2nc3c(Sc4ccccc4)nccn3c2=O)cc1 | 1100 s
26 | COc1ccc(N2CCN(c3nc(C(=O)NC4CC4)cs3)CC2)cc1 | 832 s
27 | CN(C)c1cccc(C(=O)NC2CCN(c3cc(-c4cccs4)[nH]n3)C2)c1 (stereo not drawn) | 668 s
28 | CCCn1cc(S(=O)(=O)NCc2cccs2)c2cccnc21 | 833 s
29 | O=C(Nc1ccc(Br)cc1F)C1CCCN(c2nc3ccccc3nc2C(F)(F)F)C1 (stereo not drawn) | 1360 s
30 | NC(=O)c1cc(=O)[nH]c2ccc(F)cc12 | 558 s
31 | CCCc1nc2cccnc2n1C1CCN(C(=O)c2ccc(C)c(N3CCCC3=O)c2)C1 (stereo not drawn) | 580 s
32 | O=C(NCc1ccccc1)C1=C2CCCN2c2ccccc2S1(=O)=O | 810 s
33 | COc1ccc(C2CC(=O)N(c3ccc(F)cc3F)C(=O)C2)cc1 | 931 s
34 | O=C(NCc1ccc(F)c(Cl)c1)C1CCCN(c2ncnc3c2oc2ccccc23)C1 (stereo not drawn) | 818 s
35 | COc1cc2c(cc1CNC(=O)c1ccco1)OCCCO2 | 755 s
36 | CC1(C)C(=O)Nc2ccc(S(=O)(=O)N3CCC(c4noc(-c5cccnc5)n4)C3)cc21 (stereo not drawn) | 722 s
37 | O=C(Cn1c(=O)n(-c2ccccc2)c2ncccc21)NC1CCN(Cc2ccccc2)CC1 | 630 s
38 | Cc1nnc(-c2ccc(S(=O)(=O)N3CCN(c4ccccn4)CC3)o2)o1 | 601 s
39 | O=C(c1ccc(Cl)cc1)N1CCCCC1CCN1CCOCC1 (stereo not drawn) | 637 s
40 | Cc1ccc(NS(=O)(=O)c2ccc(-c3c(C)noc3C)cc2)cc1Cl | 1040 s
41 | COc1ccccc1/C=C/c1nc(C#N)c(NCCCN(C)C)o1 | 658 s
42 | CCn1cc(-c2ccc(F)cc2)cc1C(=O)NCc1ccccn1 | 722 s
43 | CCC(C)(C)C(=O)N1CC(c2nc(-c3ccccc3)no2)C2(CCOCC2)C1 (stereo not drawn) | 553 s
44 | O=C(Cn1nc(C2CC2)cc1C(=O)N1CCCC1)Nc1ccc(F)c(F)c1 | 789 s

Row | Structure (SMILES) | RP-LC retention time
45 | O=C(Nc1ccc(F)c(C(F)(F)F)c1)C1COCC(=O)N1Cc1ccccc1 (stereo not drawn) | 824 s
46 | COc1cc2c(cc1C(=O)NCCc1c[nH]c3ccccc13)OCCCO2 | 859 s
47 | COc1ccccc1N1CCN(CCNC(=O)c2c(F)cccc2F)CC1 | 567 s
48 | COc1ccc(-n2ccc(=O)c(-c3nc(-c4cccc(OC)c4OC)no3)n2)cc1 | 824 s
49 | Cc1nn(C)c(C)c1C(C)NC(=O)C1CCN(c2cnn(Cc3ccccc3)c(=O)c2)CC1 (stereo not drawn) | 650 s
50 | COc1ccc(C2(C(=O)N3CCC4(CC3)C(OC)C(=O)N4c3cccc(F)c3)CC2)cc1 (stereo not drawn) | 901 s
51 | CCNC(=O)c1ccc(-n2cccc2)nc1 | 708 s
52 | Cc1ccc2nc(CNC(=O)C3CCN(S(=O)(=O)c4ccc5c(c4)sc(=O)n5C)CC3)[nH]c2c1 | 636 s
53 | COc1ccccc1NC(=O)N1CCC(CNC(=O)c2cc(Cl)ccc2Cl)CC1 | 811 s
54 | CCN1CCn2cc(S(=O)(=O)NCc3cc(F)cc(F)c3)cc2C1=O | 794 s
55 | COc1ccc2[nH]c(=O)c(CCC(=O)NCc3ccco3)cc2c1 | 655 s
56 | COC(=O)C1=CN(c2cccc(C)c2)c2ccccc2S1(=O)=O | 849 s
57 | O=C(Nc1nnc(C2CC(=O)N(c3ccc(F)cc3)C2)o1)c1cccc(F)c1 (stereo not drawn) | 730 s
58 | O=c1n(Cc2ccc(F)cc2)nc2c(S(=O)(=O)N3CCc4ccccc4C3)cccn12 | 938 s
59 | Cc1nn(C(C)C(=O)NCCCN2CCOCC2)c(=O)c2c(C)n(-c3ccccc3)nc12 (stereo not drawn) | 615 s
60 | Cc1nn2c(CNC(=O)c3cccc(C(F)(F)F)c3)c(C)nc2s1 | 688 s
61 | Cn1c(=O)n(CC(=O)N2CCCCC2)c(=O)c2cnc(-c3ccccc3)nc21 | 918 s
62 | CC(=O)Nc1ccc(-c2nc(-c3ccc4c(c3)oc(=O)n4C)no2)cc1 | 819 s
63 | NS(=O)(=O)c1ccc(NC(=O)c2ccc(S(=O)(=O)c3ccc(Cl)cc3)s2)cc1 | 877 s
64 | Cn1cc(S(=O)(=O)N2CCC(C(=O)N3CCCCCC3)CC2)cc1C(=O)N1CCCCC1 | 770 s
65 | Cc1ccc2nc(NC3=NCN(Cc4cccnc4)CN3)nc(C)c2c1 | 587 s
66 | O=C(NCc1ccccc1)C1CC(=O)N(C2CN(Cc3ccc(C(F)(F)F)cc3)C2)C1 (stereo not drawn) | 666 s

Row | Structure (SMILES) | RP-LC retention time
67 | CCc1cccc(NC(=O)N2CCN(c3cc(C)nc(N4CCCC4)n3)CC2)c1 | 704 s
68 | Cc1csc(C(=O)NCCC(O)C(C)(C)C)c1 (stereo not drawn) | 718 s
69 | Cn1c(=O)c2cc(C(=O)Nc3ccccc3)cnc2n(-c2ccccc2)c1=O | 862 s
70 | N#CCSC1=NS(=O)(=O)c2cc(F)ccc2N1 | 622 s
71 | CC(C)(C)OC(=O)N1CCN(CCNC(=O)CSc2nc3ccccc3o2)CC1 | 595 s
72 | CCc1nc(-c2csc(S(=O)(=O)N3CCCC(C(=O)Nc4cccnc4)C3)c2)no1 (stereo not drawn) | 678 s
73 | Cc1ccc(-c2nnc(-c3nn(C)c4c3CN(S(=O)(=O)c3ccc(F)c(Cl)c3)CC4)o2)cc1 | 970 s
74 | O=C(NC1CCCC1)N1CCC(c2noc(-c3cccnc3)n2)C1 (stereo not drawn) | 701 s
75 | CCCc1noc(-c2nnn3c2COC(c2ccc(F)cc2)C3)n1 (stereo not drawn) | 1040 s
76 | COc1cc(Cl)c(C)cc1Nc1c(C(=O)N2CCC(C)CC2)cnc2nc(C)ccc12 | 706 s
77 | CCc1ccc(-n2nnc3c(=O)n(Cc4nc(-c5ccccc5Cl)no4)cnc32)cc1 | 1120 s
78 | O=C(Nc1nc2c(s1)CCCC2C(=O)N1CCOCC1)c1ccc(Cl)cc1 (stereo not drawn) | 759 s
79 | COC(=O)c1cc(OCC(=O)Nc2ccc(F)cc2)c2cc(OC)c(OC)cc2n1 | 750 s
80 | O=C1C(N2CCN(S(=O)(=O)c3ccccc3Cl)CC2)CCN1CCc1ccccc1 (stereo not drawn) | 672 s
81 | COc1ccc(-c2nc(C3CC(=O)N(c4ccc(OC)c(OC)c4)C3)no2)c(C)c1 (stereo not drawn) | 911 s
82 | Cc1c(C(=O)O)nnn1-c1ccc2noc(-c3ccccc3)c2c1 | 775 s
83 | O=C(O)c1ccc2c(c1)CC(=O)N2Cc1cccc(F)c1 | 729 s
84 | CCC1CN(C(=O)Nc2ccc3c(c2)OCCO3)c2ccccc2O1 (stereo not drawn) | 966 s
85 | COc1ccc(-c2cc3c(=O)n(Cc4noc(CN5CCCCC5C)n4)ccn3n2)cc1 (stereo not drawn) | 674 s
86 | O=C(Nc1cnn(-c2ncncc2N2CCCC2)c1)c1cccc(C(F)(F)F)c1 | 797 s
87 | Cc1ccc(C2(O)C(=O)N(Cc3nc(-c4ccccc4)oc3C)c3ccccc32)cc1 (stereo not drawn) | 1110 s
88 | COc1cccc(-c2nc(-c3cccc(-c4ccnn4C)c3)no2)c1OC | 1020 s
